This note sets out measurements from patent US10065941B2, “Aminotriazine derivative and pharmaceutical composition comprising the same” (Shionogi & Co., Ltd., priority 2013, dated 2018).

Chain of human P2X3 receptor (P56373 whole entry): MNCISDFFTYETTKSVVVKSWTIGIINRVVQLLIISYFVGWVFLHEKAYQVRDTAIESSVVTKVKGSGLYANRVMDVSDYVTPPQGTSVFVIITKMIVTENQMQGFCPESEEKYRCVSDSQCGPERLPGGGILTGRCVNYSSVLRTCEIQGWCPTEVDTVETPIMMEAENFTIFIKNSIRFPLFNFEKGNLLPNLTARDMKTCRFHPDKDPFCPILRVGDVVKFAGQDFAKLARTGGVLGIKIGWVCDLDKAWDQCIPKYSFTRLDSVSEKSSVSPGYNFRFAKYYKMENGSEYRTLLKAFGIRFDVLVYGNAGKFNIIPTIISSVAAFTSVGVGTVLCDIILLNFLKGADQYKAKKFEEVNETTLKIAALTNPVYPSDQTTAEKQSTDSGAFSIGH

For the test, the target named is human P2X3 receptor (Homo sapiens (Human), UniProt P56373). Description: Evaluation of human P2X3 receptor inhibitory activity (Test Example 1). The class given is cell-based. The conditions noted are these: C6BU-1 cell transfected with human P2X3 receptor gene, FLIPR 384. The gist of the method:
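FLIPR calcium read-out: signal taken as peak fluorescence after ATP addition divided by starting fluorescence, and IC50 calculated from it. Compound added 5 min before 150 nM ATP solution (pre-dispense stock) to Fluo-3-AM-loaded C6BU-1 cells stably transfected with human P2X3; HEPES buffer pH 7.5 with probenecid.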
Compound `COC(=O)C[C@@H](C)n1c(=O)[nH]/c(=N\c2ccc(Oc3ccccn3)cc2)n(Cc2ccc(C)cc2)c1=O` [Compound I-186] registered an IC50 of 0.005 µM. This lies in the single-digit nanomolar range.
Compound `Cc1ccc(Cn2c(=O)n([C@H](C)CC(=O)O)c(=O)[nH]/c2=N\c2ccc(Oc3ccccn3)cc2)cc1` [Compound I-187] returned an IC50 of 0.008 µM.
Take `COC(=O)C[C@@H](C)n1c(=O)[nH]/c(=N\c2ccc(Oc3ncccc3F)cc2)n(Cc2ccc(C)cc2)c1=O` [Compound I-188]: the IC50 was determined as 0.007 µM.
The compound `Cc1ccc(Cn2c(=O)n([C@H](C)CC(=O)O)c(=O)[nH]/c2=N\c2ccc(Oc3ncccc3F)cc2)cc1` [Compound I-189] came in with an IC50 of 0.012 µM.
`COC(=O)C[C@@H](C)n1c(=O)[nH]/c(=N\c2ccc(Oc3ccc(F)cn3)cc2)n(Cc2ccc(C)cc2)c1=O` [Compound I-190] registered an IC50 of 0.005 µM.
In turn, `Cc1ccc(Cn2c(=O)n([C@H](C)CC(=O)O)c(=O)[nH]/c2=N\c2ccc(Oc3ccc(F)cn3)cc2)cc1` [Compound I-191] displayed an IC50 of 0.011 µM.
`CCOC(=O)C1(Cn2c(=O)[nH]/c(=N\c3ccc(Oc4ccccn4)cc3)n(Cc3ccc(Cl)cc3)c2=O)CC1` [Compound I-192] returned an IC50 of 0.005 µM.
For the compound `O=C(O)C1(Cn2c(=O)[nH]/c(=N\c3ccc(Oc4ccccn4)cc3)n(Cc3ccc(Cl)cc3)c2=O)CC1` [Compound I-193], the IC50 is 0.008 µM.
With `COC(=O)[C@@H](C)Cn1c(=O)[nH]/c(=N\c2ccc(Oc3ccccn3)cc2)n(Cc2ccc(C(F)F)cc2)c1=O` [Compound I-194] the figure was 0.012 µM; with `Cc1ccc(Cn2c(=O)n([C@@H](C)[C@@H](C)C(=O)O)c(=O)[nH]/c2=N\c2ccc(Oc3ccccn3)cc2)cc1` [Compound I-195], 0.007 µM; with `CO[C@H](Cn1c(=O)[nH]/c(=N\c2ccc(Oc3ccccn3)cc2)n(Cc2ccc(Cl)cc2)c1=O)C(=O)O` [Compound I-200], 0.042 µM.
With `C[C@@H](Cn1c(=O)[nH]/c(=N\c2ccc(Oc3ccccn3)cc2)n(Cc2ccc(C(F)F)cc2)c1=O)C(=O)O` [Compound I-201] the figure was 0.013 µM.
The result for `C[C@@H](Cn1c(=O)[nH]/c(=N\c2ccc(Oc3ccccn3)cc2)n(CC2CCC3(CC2)CC3)c1=O)C(=O)O` [Compound I-202] reads 0.008 µM; that for `COC(=O)[C@@H](Cn1c(=O)[nH]/c(=N\c2ccc(Oc3ccccn3)cc2)n(Cc2ccc(Cl)cc2)c1=O)OC` [Compound I-203], 0.003 µM.
For `COC(=O)[C@@H](C)Cn1c(=O)[nH]/c(=N\c2ccc(Oc3ccccn3)c(F)c2)n(Cc2ccc(C)cc2)c1=O` [Compound I-204], the midpoint of inhibition, the IC50, lay at 0.004 µM. This IC50 and that of the compound before are within 1.5-fold of each other.
For the compound `COC(=O)[C@@H](C)Cn1c(=O)[nH]/c(=N\c2ccc(Oc3ccccn3)c(F)c2)n(Cc2ccc(Cl)cc2)c1=O` [Compound I-205], the half-maximal inhibitory concentration (IC50) was found to be 0.012 µM.
With `COC(=O)[C@@H](C)Cn1c(=O)[nH]/c(=N\c2ccc(Oc3ccccn3)cc2)n(Cc2ccc(CF)cc2)c1=O` [Compound I-206] the figure was 0.01 µM; with `COC(=O)[C@@H](C)Cn1c(=O)[nH]/c(=N\c2ccc(Oc3ncccc3F)cc2)n(Cc2ccc(CF)cc2)c1=O` [Compound I-207], 0.012 µM.
In turn, `COC(=O)[C@@H](C)Cn1c(=O)[nH]/c(=N\c2ccc(Oc3ccc(F)cn3)cc2)n(Cc2ccc(CF)cc2)c1=O` [Compound I-208] showed an IC50 of 0.012 µM.
For the compound `COC(=O)[C@@H](C)Cn1c(=O)[nH]/c(=N\c2ccc(Oc3cccc(F)n3)cc2)n(Cc2ccc(CF)cc2)c1=O` [Compound I-209], the 50% inhibitory concentration (IC50) worked out at 0.008 µM. This IC50 is about 1.5-fold lower than that of the compound before.
With `Cc1ccc(Cn2c(=O)n(C[C@H](C)C(=O)O)c(=O)[nH]/c2=N\c2ccc(Oc3ccccn3)c(F)c2)cc1` [Compound I-210] the figure was 0.007 µM.
For the compound `C[C@@H](Cn1c(=O)[nH]/c(=N\c2ccc(Oc3ccccn3)c(F)c2)n(Cc2ccc(Cl)cc2)c1=O)C(=O)O` [Compound I-211], the IC50 amounted to 0.007 µM.
On to `Cc1cc(/N=c2\[nH]c(=O)n(C[C@H](C)C(=O)O)c(=O)n2Cc2ccc(Cl)cc2)ccc1Oc1ccccn1` [Compound I-212], for which the IC50 is 0.01 µM. This IC50 and that of the compound before are within 1.5-fold of each other.
As to `Cc1ccc(Cn2c(=O)n(C[C@H](C)C(=O)O)c(=O)[nH]/c2=N\c2ccc(Oc3ccccn3)c(C)c2)cc1` [Compound I-213], the IC50 worked out at 0.012 µM.
Turning to `C[C@@H](Cn1c(=O)[nH]/c(=N\c2ccc(Oc3ccccn3)cc2)n(Cc2ccc(CF)cc2)c1=O)C(=O)O` [Compound I-214], the IC50 worked out at 0.011 µM. The IC50 values of the last two compounds are within 1.5-fold of each other.
`C[C@@H](Cn1c(=O)[nH]/c(=N\c2ccc(Oc3ncccc3F)cc2)n(Cc2ccc(CF)cc2)c1=O)C(=O)O` [Compound I-215] displayed an IC50 of 0.016 µM.
`C[C@@H](Cn1c(=O)[nH]/c(=N\c2ccc(Oc3ccc(F)cn3)cc2)n(Cc2ccc(CF)cc2)c1=O)C(=O)O` [Compound I-216]: the IC50 came to 0.017 µM.
`C[C@@H](Cn1c(=O)[nH]/c(=N\c2ccc(Oc3cccc(F)n3)cc2)n(Cc2ccc(CF)cc2)c1=O)C(=O)O` [Compound I-217] registered an IC50 of 0.011 µM.
For the compound `COc1cccc(Oc2ccc(/N=c3\[nH]c(=O)n(C[C@H](C)C(=O)O)c(=O)n3Cc3ccc(C)cc3)cc2)n1` [Compound I-218], the IC50 is 0.01 µM.
As for `Cc1cc(/N=c2\[nH]c(=O)n(CC(C)(C)C(=O)O)c(=O)n2Cc2ccc(Cl)cc2)ccc1Oc1ccccn1` [Compound I-219], it took 0.012 µM to reach half-maximal inhibition (IC50).
As to `Cc1cc(/N=c2\[nH]c(=O)n([C@@H](C)[C@@H](C)C(=O)O)c(=O)n2Cc2ccc(Cl)cc2)ccc1Oc1ccccn1` [Compound I-220], the IC50 was 0.01 µM.
`COC(=O)[C@@H](C)Cn1c(=O)[nH]/c(=N\c2ccc(Oc3cccc(OC)n3)cc2)n(Cc2ccc(C)cc2)c1=O` [Compound I-221] had an IC50 of 0.011 µM. This IC50 and that of the compound before are within 1.5-fold of each other.
Compound `COC(=O)[C@@H](C)Cn1c(=O)[nH]/c(=N\c2ccc(Oc3ccc(OC)cn3)cc2)n(Cc2ccc(C)cc2)c1=O` [Compound I-222] yielded a 50% inhibitory concentration (IC50) of 0.004 µM.
`COC(=O)[C@@H](C)Cn1c(=O)[nH]/c(=N\c2ccc(Oc3ccccn3)c(C)c2)n(Cc2ccc(Cl)cc2)c1=O` [Compound I-223] yielded an IC50 of 0.011 µM.
The result for `COC(=O)[C@@H](C)Cn1c(=O)[nH]/c(=N\c2ccc(Oc3ccccn3)c(C)c2)n(Cc2ccc(C)cc2)c1=O` [Compound I-224] reads 0.006 µM; that for `COC(=O)C(C)(C)Cn1c(=O)[nH]/c(=N\c2ccc(Oc3ccccn3)c(C)c2)n(Cc2ccc(Cl)cc2)c1=O` [Compound I-225], 0.014 µM; that for `COC(=O)[C@H](C)[C@H](C)n1c(=O)[nH]/c(=N\c2ccc(Oc3ccccn3)c(C)c2)n(Cc2ccc(Cl)cc2)c1=O` [Compound I-226], 0.038 µM.
Compound `COC(=O)C(C)(C)Cn1c(=O)[nH]/c(=N\c2ccc(Oc3ccccn3)c(F)c2)n(Cc2ccc(Cl)cc2)c1=O` [Compound I-227] registered an IC50 of 0.031 µM.
The compound `COC(=O)[C@H](C)[C@H](C)n1c(=O)[nH]/c(=N\c2ccc(Oc3ccccn3)c(F)c2)n(Cc2ccc(Cl)cc2)c1=O` [Compound I-228] displayed an IC50 of 0.021 µM.
For `COc1ccc(Oc2ccc(/N=c3\[nH]c(=O)n(C[C@H](C)C(=O)O)c(=O)n3Cc3ccc(C)cc3)cc2)nc1` [Compound I-229], half-maximal inhibition (IC50) required 0.006 µM. This IC50 lies about 3.5-fold lower than the previous one.
In turn, `CC(C)(Cn1c(=O)[nH]/c(=N\c2ccc(Oc3ccccn3)c(F)c2)n(Cc2ccc(Cl)cc2)c1=O)C(=O)O` [Compound I-230] showed a half-inhibitory concentration (IC50) of 0.011 µM. This IC50 is about 1.8-fold higher than that of the compound before.
In turn, `C[C@@H](C(=O)O)[C@H](C)n1c(=O)[nH]/c(=N\c2ccc(Oc3ccccn3)c(F)c2)n(Cc2ccc(Cl)cc2)c1=O` [Compound I-231] displayed a half-maximal inhibitory concentration (IC50) of 0.007 µM.
Turning to `C[C@@H](Cn1c(=O)[nH]/c(=N\c2ccc(Oc3ccc(CF)cn3)cc2)n(Cc2ccc(Cl)cc2)c1=O)C(=O)O` [Compound I-232], the IC50 was 0.005 µM.
In turn, `C[C@@H](Cn1c(=O)[nH]/c(=N\c2ccc(Oc3ccc(CF)nc3)cc2)n(Cc2ccc(Cl)cc2)c1=O)C(=O)O` [Compound I-233] gave an IC50 of 0.006 µM.
`C[C@@H](Cn1c(=O)[nH]/c(=N\c2ccc(Oc3cccc(F)n3)cc2)n(CC2CCC3(CC2)CC3)c1=O)C(=O)O` [Compound I-234]: the IC50 amounted to 0.007 µM. The IC50 values of the last two compounds are within 1.5-fold of each other.
As to `C[C@@H](Cn1c(=O)[nH]/c(=N\c2ccc(Oc3ccc(F)cn3)cc2)n(CC2CCC3(CC2)CC3)c1=O)C(=O)O` [Compound I-235], the IC50 stood at 0.009 µM.
Turning to `COC(=O)[C@@H](C)Cn1c(=O)[nH]/c(=N\c2ccc(Oc3cccc(F)n3)cc2)n(CC2CCC3(CC2)CC3)c1=O` [Compound I-236], 0.016 µM corresponded to half-maximal inhibition (IC50).
`COC(=O)[C@@H](C)Cn1c(=O)[nH]/c(=N\c2ccc(Oc3ccc(F)cn3)cc2)n(CC2CCC3(CC2)CC3)c1=O` [Compound I-237] yielded an IC50 of 0.014 µM.
`COC(=O)[C@@H](C)Cn1c(=O)[nH]/c(=N\c2ccc(Oc3ccc(CF)cn3)cc2)n(Cc2ccc(Cl)cc2)c1=O` [Compound I-238] came in with an IC50 of 0.005 µM.
As for `COC(=O)[C@@H](C)Cn1c(=O)[nH]/c(=N\c2ccc(Oc3ccc(CF)nc3)cc2)n(Cc2ccc(Cl)cc2)c1=O` [Compound I-239], the IC50 was found to be 0.006 µM. This IC50 and that of the compound before are within 1.5-fold of each other.
On to `C[C@@H](Cn1c(=O)[nH]/c(=N\c2ccc(Oc3cc(CO)ccn3)cc2)n(Cc2ccc(Cl)cc2)c1=O)C(=O)O` [Compound I-240], for which the half-maximal inhibitory concentration (IC50) is 0.022 µM.
The compound `COCc1ccc(Oc2ccc(/N=c3\[nH]c(=O)n(C[C@H](C)C(=O)O)c(=O)n3Cc3ccc(Cl)cc3)cc2)nc1` [Compound I-241] yielded an IC50 of 0.008 µM.
With `Cc1ccc(Cn2c(=O)n(C[C@H](C)C(=O)O)c(=O)[nH]/c2=N\c2ccc(Oc3ccc(CF)cn3)cc2)cc1` [Compound I-242] the figure was 0.008 µM; with `C[C@@H](Cn1c(=O)[nH]/c(=N\c2ccc(Oc3ccccn3)c(Cl)c2)n(Cc2ccc(Cl)cc2)c1=O)C(=O)O` [Compound I-243], 0.007 µM.
For `C[C@@H](Cn1c(=O)[nH]/c(=N\c2ccc(Oc3ccccn3)c(F)c2)n(C[C@H]2CC[C@H](C)CC2)c1=O)C(=O)O` [Compound I-244], the midpoint of inhibition, the IC50, lay at 0.008 µM.
Compound `COC(=O)[C@@H](C)Cn1c(=O)[nH]/c(=N\c2ccc(Oc3cccc(CO)n3)cc2)n(Cc2ccc(Cl)cc2)c1=O` [Compound I-245] returned an IC50 of 0.014 µM.
